Experimental data published in US20190330224A1, “ACC INHIBITORS AND USES THEREOF” (Gilead Apollo, LLC, priority 2015, published 2019).
pIC50: −log10 of the molar value. In brackets after ≈: the same amount, converted by molar mass.

Experiments:
[1] = tested on: C. krusei ATCC 6258; assay: Anti-Fungal Activity Assay (broth microtiter MIC), C. krusei; type: cell-based, Candida krusei; conditions: 3 replicates, MIC recorded at 48 h; for MIC: Pichia kudriavzevii, ATCC6258, 48 h, read-out: MIC C. krusei ATCC 6258
Procedure: (§1) Compounds of the present invention were evaluated in an Anti-Fungal Activity Assay. An exemplary procedure for the assay, which measures the susceptibility of various Candida species to anti-fungal compounds, follows. Compounds to be tested (including fluconazole and amphotericin B) were dissolved in DMSO to obtain a solution having a concentration of 1 mg/mL. […] All species were grown from frozen stock by directly plating on to freshly prepared Sabouraud Dextrose agar (BD, Difco) and incubated overnight in ambient air at 35° C. for 24 h. A direct suspension was prepared in RPMI 1640+MOPS (Lonza, Biowhittaker) by taking individual colonies from the overnight cultures using sterile swabs soaked in sterile saline. The concentration of the suspension was determined using pre-determined standard curves. […] Broth microtiter MIC challenge plates were prepared following CLSI guidelines (M27-A3, Vol. 28 No. 14). The original CLSI guidelines focused on reading Candida MICs after 48 h of incubation. As reading after only 24 h offers a clear advantage of patient care, QC limits are being established for all drugs at 24 h. That being said there are no known interpretive breakpoints for amphotericin B at 24 h and the current fluconazole interpretive breakpoints are based on a 48 h reading. The MIC breakpoints for the test compounds were recorded at 48 h, and for the soraphen the 24 h time-point was added. All MIC determinations were achieved by visually comparing the growth found in the antibiotic challenged wells to that of the growth control.

[2] = tested on: C. albicans ATCC 90028; assay: Anti-Fungal Activity Assay (broth microtiter MIC), C. albicans; type: cell-based, Candida albicans; conditions: 3 replicates, MIC recorded at 48 h; for MIC: Candida albicans, ATCC90028, 48 h, read-out: MIC C. albicans ATCC 90028
Procedure: as §1

[3] = tested on: C. parapsilosis ATCC 22019; assay: Anti-Fungal Activity Assay (broth microtiter MIC), C. parapsilosis; type: cell-based, Candida parapsilosis; conditions: Lodderomyces parapsilosis, ATCC22019, 48 h, 3 replicates; MIC recorded at 48 h; read-out: MIC C. parapsilosis ATCC 22019
Procedure: as §1

[4] = target: Human ACC2 (Homo sapiens, UniProt O00763); assay: In vitro ACC2 inhibition assay (ADP-Glo), human ACC2; type: biochemical; conditions: 5 nM ACC2, 20 μM ATP, 20 μM acetyl-CoA
Chain of Human ACC2 (O00763 whole entry): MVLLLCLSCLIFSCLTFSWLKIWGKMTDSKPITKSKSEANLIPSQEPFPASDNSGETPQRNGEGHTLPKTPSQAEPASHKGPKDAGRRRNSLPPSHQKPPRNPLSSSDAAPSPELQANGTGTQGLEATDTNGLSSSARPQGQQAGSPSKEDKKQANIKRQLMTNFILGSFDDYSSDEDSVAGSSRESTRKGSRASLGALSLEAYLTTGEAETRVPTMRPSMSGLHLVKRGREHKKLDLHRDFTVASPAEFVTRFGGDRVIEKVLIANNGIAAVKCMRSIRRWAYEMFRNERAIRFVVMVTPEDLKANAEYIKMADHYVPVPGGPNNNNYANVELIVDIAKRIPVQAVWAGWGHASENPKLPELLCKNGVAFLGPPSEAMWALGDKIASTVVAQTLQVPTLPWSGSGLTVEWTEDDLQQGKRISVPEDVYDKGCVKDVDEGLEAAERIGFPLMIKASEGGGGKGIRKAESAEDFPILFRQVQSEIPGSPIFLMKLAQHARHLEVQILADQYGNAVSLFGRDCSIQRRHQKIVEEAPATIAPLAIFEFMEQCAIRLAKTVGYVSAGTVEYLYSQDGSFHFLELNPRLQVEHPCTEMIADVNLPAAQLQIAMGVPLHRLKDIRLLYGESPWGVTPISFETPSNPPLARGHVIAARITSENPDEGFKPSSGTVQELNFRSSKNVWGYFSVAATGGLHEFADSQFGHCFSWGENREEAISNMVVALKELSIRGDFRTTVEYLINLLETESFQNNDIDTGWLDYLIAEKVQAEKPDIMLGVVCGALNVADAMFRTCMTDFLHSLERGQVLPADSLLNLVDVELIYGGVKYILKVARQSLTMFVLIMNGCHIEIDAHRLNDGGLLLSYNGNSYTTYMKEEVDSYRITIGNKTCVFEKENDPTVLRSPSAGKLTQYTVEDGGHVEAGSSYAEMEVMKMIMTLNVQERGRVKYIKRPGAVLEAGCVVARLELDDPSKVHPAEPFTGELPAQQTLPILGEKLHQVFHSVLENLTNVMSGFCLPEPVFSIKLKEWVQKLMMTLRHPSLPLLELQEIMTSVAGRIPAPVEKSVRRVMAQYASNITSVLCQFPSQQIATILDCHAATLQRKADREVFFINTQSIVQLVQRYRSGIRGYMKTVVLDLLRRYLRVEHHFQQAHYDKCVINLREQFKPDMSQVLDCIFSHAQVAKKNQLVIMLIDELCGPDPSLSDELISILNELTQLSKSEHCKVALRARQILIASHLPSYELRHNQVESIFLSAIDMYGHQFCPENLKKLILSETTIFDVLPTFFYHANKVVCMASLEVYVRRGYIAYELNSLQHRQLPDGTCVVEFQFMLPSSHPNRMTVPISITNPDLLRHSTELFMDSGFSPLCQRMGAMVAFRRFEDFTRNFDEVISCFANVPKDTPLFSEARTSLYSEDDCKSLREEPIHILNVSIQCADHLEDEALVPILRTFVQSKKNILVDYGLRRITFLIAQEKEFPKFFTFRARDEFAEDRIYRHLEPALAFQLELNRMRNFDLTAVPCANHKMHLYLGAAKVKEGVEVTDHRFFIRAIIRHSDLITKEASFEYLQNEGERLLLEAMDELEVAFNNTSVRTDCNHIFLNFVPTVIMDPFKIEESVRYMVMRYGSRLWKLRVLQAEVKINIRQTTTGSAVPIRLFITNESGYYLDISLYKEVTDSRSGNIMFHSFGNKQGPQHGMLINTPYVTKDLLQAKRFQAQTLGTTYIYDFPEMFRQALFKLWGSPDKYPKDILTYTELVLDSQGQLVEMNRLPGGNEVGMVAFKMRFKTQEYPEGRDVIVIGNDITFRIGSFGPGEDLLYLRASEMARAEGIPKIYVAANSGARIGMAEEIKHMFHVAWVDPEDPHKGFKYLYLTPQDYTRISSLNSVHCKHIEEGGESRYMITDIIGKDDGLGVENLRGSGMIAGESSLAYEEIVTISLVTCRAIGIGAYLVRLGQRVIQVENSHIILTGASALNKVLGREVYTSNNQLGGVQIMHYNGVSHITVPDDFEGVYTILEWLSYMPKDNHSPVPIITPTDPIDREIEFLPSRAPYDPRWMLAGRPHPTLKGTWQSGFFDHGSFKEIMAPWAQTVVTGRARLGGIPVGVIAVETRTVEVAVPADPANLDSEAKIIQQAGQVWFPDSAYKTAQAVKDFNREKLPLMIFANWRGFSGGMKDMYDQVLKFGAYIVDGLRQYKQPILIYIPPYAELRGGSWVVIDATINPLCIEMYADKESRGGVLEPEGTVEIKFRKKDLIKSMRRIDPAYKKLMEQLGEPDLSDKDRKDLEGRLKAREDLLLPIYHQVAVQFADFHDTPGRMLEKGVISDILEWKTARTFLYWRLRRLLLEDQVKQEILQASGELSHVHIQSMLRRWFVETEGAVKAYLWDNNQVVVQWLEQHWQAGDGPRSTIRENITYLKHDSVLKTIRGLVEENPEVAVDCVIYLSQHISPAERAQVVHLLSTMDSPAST

| Structure (SMILES) | MIC C. krusei ATCC 6258 [1] | MIC C. albicans ATCC 90028 [2] | MIC [3] [µg/mL] | pIC50 [4] | MIC [1] [µg/mL] | MIC [2] [µg/mL] |
| --- | --- | --- | --- | --- | --- | --- |
| CCN1CCC(n2c(=O)c3c(C)c(-n4nccn4)sc3n(C[C@H](OCCO)c3cc(F)ccc3OC)c2=O)C1=O (stereo partly drawn) [Compound I-7, 3-(1-ethyl-2-oxopyrrolidin-3-yl)-1-((R)-2-(5-fluoro-2-methoxyphenyl)-2-(2-hydroxyethoxy)ethyl)-5-methyl-6-(2H-1,2,3-triazol-2-yl)thieno[2,3-d]pyrimidine-2,4(1H,3H)-dione] | – | – | 2.1 to 4 (≈ 3.67 to 6.99 µM) | 7.00 to 8.00 | 1.1 to 2 (≈ 1.92 to 3.49 µM) | 2.1 to 4 (≈ 3.67 to 6.99 µM) |
| CCN1CCCC(n2c(=O)c3c(C)c(-n4nccn4)sc3n(C[C@H](OCCO)c3cc(F)ccc3OC)c2=O)C1=O (stereo partly drawn) [Compound I-19, 3-(1-ethyl-2-oxopiperidin-3-yl)-1-((R)-2-(5-fluoro-2-methoxyphenyl)-2-(2-hydroxyethoxy)ethyl)-5-methyl-6-(2H-1,2,3-triazol-2-yl)thieno[2,3-d]pyrimidine-2,4(1H,3H)-dione] | – | – | 2.1 to 4 (≈ 3.58 to 6.82 µM) | 7.00 to 8.00 | 2.1 to 4 (≈ 3.58 to 6.82 µM) | 2.1 to 4 (≈ 3.58 to 6.82 µM) |
| COc1ccc(F)cc1[C@H](Cn1c(=O)n(C2CCCN(C(C)C)C2=O)c(=O)c2c(C)c(-n3nccn3)sc21)OCCO (stereo partly drawn) [Compound I-20, 1-((R)-2-(5-fluoro-2-methoxyphenyl)-2-(2-hydroxy-ethoxy)ethyl)-3-(1-isopropyl-2-oxopiperidin-3-yl)-5-methyl-6-(2H-1,2,3-triazol-2-yl)thieno[2,3-d]pyrimidine-2,4(1H,3H)-dione] | – | – | 2.1 to 4 (≈ 3.5 to 6.66 µM) | 7.00 to 8.00 | 2.1 to 4 (≈ 3.5 to 6.66 µM) | 2.1 to 4 (≈ 3.5 to 6.66 µM) |
| COc1ccc(F)cc1[C@H](Cn1c(=O)n([C@H]2CCCN(C(C)C)C2=O)c(=O)c2c(C)c(-n3nccn3)sc21)OC1CCOCC1 [Compound I-76, 1-((R)-2-(5-fluoro-2-methoxyphenyl)-2-((tetrahydro-2H-pyran-4-yl)oxy)ethyl)-3-((S)-1-isopropyl-2-oxopiperidin-3-yl)-5-methyl-6-(2H-1,2,3-triazol-2-yl)thieno[2,3-d]pyrimidine-2,4(1H,3H)-dione] | – | – | – | 7.00 to 8.00 | – | – |
| COc1ccc(F)cc1[C@H](Cn1c(=O)n([C@]2(C)CCNC2=O)c(=O)c2c(C)c(-n3nccn3)sc21)OCCO [Compound I-144, 1-((R)-2-(5-fluoro-2-methoxyphenyl)-2-(2-hydroxyethoxy)ethyl)-5-methyl-3-((R)-3-methyl-2-oxopyrrolidin-3-yl)-6-(2H-1,2,3-triazol-2-yl)thieno[2,3-d]pyrimidine-2,4(1H,3H)-dione] | – | – | – | < 6.00 | – | – |
| COc1ccc(F)cc1[C@H](Cn1c(=O)n([C@@]2(C)CCNC2=O)c(=O)c2c(C)c(-n3nccn3)sc21)OCCO [Compound I-145, 1-((R)-2-(5-fluoro-2-methoxyphenyl)-2-(2-hydroxy-ethoxy)ethyl)-5-methyl-3-((S)-3-methyl-2-oxopyrrolidin-3-yl)-6-(2H-1,2,3-triazol-2-yl)thieno[2,3-d]pyrimidine-2,4(1H,3H)-dione] | – | – | – | < 6.00 | – | – |
| COc1ccc(F)cc1[C@H](Cn1c(=O)n([C@]2(C)CCN(C)C2=O)c(=O)c2c(C)c(-n3nccn3)sc21)OCCO [Compound I-147, 3-((R)-1,3-dimethyl-2-oxopyrrolidin-3-yl)-1-((R)-2-(5-fluoro-2-methoxyphenyl)-2-(2-hydroxyethoxy)ethyl)-5-methyl-6-(2H-1,2,3-triazol-2-yl)thieno[2,3-d]pyrimidine-2,4(1H,3H)-dione] | – | – | – | < 6.00 | – | – |
| COc1ccc(F)cc1[C@H](Cn1c(=O)n([C@@]2(C)CCN(C)C2=O)c(=O)c2c(C)c(-n3nccn3)sc21)OCCO [Compound I-149, 3-((S)-1,3-dimethyl-2-oxopyrrolidin-3-yl)-1-((R)-2-(5-fluoro-2-methoxyphenyl)-2-(2-hydroxyethoxy)ethyl)-5-methyl-6-(2H-1,2,3-triazol-2-yl)thieno[2,3-d]pyrimidine-2,4(1H,3H)-dione] | – | – | – | < 6.00 | – | – |

Further lines, results first:

| MIC C. krusei ATCC 6258 [1] | MIC C. albicans ATCC 90028 [2] | MIC [3] [µg/mL] | pIC50 [4] | MIC [1] [µg/mL] | MIC [2] [µg/mL] | Structure (SMILES) |
| --- | --- | --- | --- | --- | --- | --- |
| A (provided an MIC of 0.25-1.0 μg/mL) | A (provided an MIC of 0.25-1.0 μg/mL) | 2.1 to 4 (≈ 3.35 to 6.38 µM) | 8.00 to 8.70 | – | – | COc1ccc(F)cc1[C@H](Cn1c(=O)n(C2CCN(C(C)C)C2=O)c(=O)c2c(C)c(-n3nccn3)sc21)OC1CCOCC1 (stereo in doubt) [Compound I-138, 1-((R)-2-(5-fluoro-2-methoxyphenyl)-2-((tetrahydro-2H-pyran-4-yl)oxy)ethyl)-3-((S)-1-isopropyl-2-oxopyrrolidin-3-yl)-5-methyl-6-(2H-1,2,3-triazol-2-yl)thieno[2,3-d]pyrimidine-2,4(1H,3H)-dione] |
| – | – | 2.1 to 4 (≈ 3.58 to 6.82 µM) | 7.00 to 8.00 | 2.1 to 4 (≈ 3.58 to 6.82 µM) | 2.1 to 4 (≈ 3.58 to 6.82 µM) | CCN1CCC(n2c(=O)c3c(C)c(-n4nccn4)sc3n(C[C@H](OCCOC)c3cc(F)ccc3OC)c2=O)C1=O (stereo partly drawn) [Compound I-3, 3-(1-ethyl-2-oxopyrrolidin-3-yl)-1-((R)-2-(5-fluoro-2-methoxyphenyl)-2-(2-methoxyethoxy)ethyl)-5-methyl-6-(2H-1,2,3-triazol-2-yl)thieno[2,3-d]pyrimidine-2,4(1H,3H)-dione] |
| – | – | 2.1 to 4 (≈ 3.76 to 7.16 µM) | 7.00 to 8.00 | 2.1 to 4 (≈ 3.76 to 7.16 µM) | 2.1 to 4 (≈ 3.76 to 7.16 µM) | COc1ccc(F)cc1[C@H](Cn1c(=O)n(C2CCN(C)C2=O)c(=O)c2c(C)c(-n3nccn3)sc21)OCCO (stereo partly drawn) [Compound I-6, 1-((R)-2-(5-fluoro-2-methoxyphenyl)-2-(2-hydroxy-ethoxy)ethyl)-5-methyl-3-(-methyl-2-oxopyrrolidin-3-yl)-6-(2H-1,2,3-triazol-2-yl)thieno[2,3-d]pyrimidine-2,4(1H,3H)-dione] |
| – | – | – | 8.00 to 8.70 | – | – | COc1ccc(F)cc1[C@H](Cn1c(=O)n(C2CCN(C(C)C)C2=O)c(=O)c2c(C)c(-n3nccn3)sc21)OCCO (stereo partly drawn) [Compound I-8, 1-((R)-2-(5-fluoro-2-methoxyphenyl)-2-(2-hydroxyethoxy)ethyl)-3-(1-isopropyl-2-oxopyrrolidin-3-yl)-5-methyl-6-(2H-1,2,3-triazol-2-yl)thieno[2,3-d]pyrimidine-2,4(1H,3H)-dione] |
| – | – | – | 8.00 to 8.70 | – | – | COc1ccc(F)cc1[C@H](Cn1c(=O)n(C2CCNC2=O)c(=O)c2c(C)c(-n3nccn3)sc21)OC1CCOCC1 (stereo partly drawn) [Compound I-9, 1-((R)-2-(5-fluoro-2-methoxyphenyl)-2-((tetrahydro-2H-pyran-4-yl)oxy)ethyl)-5-methyl-3-(2-oxopyrrolidin-3-yl)-6-(22H-1,2,3-triazol-2-yl)thieno[2,3-d]pyrimidine-2,4(1H,3H)-dione] |
| – | – | 2.1 to 4 (≈ 3.76 to 7.16 µM) | 8.00 to 8.70 | 2.1 to 4 (≈ 3.76 to 7.16 µM) | 2.1 to 4 (≈ 3.76 to 7.16 µM) | COc1ccc(F)cc1[C@H](Cn1c(=O)n(C2CCCNC2=O)c(=O)c2c(C)c(-n3nccn3)sc21)OCCO (stereo partly drawn) [Compound I-17, 1-((R)-2-(5-fluoro-2-methoxyphenyl)-2-(2-hydroxy-ethoxy)ethyl)-5-methyl-3-(2-oxopiperidin-3-yl)-6-(2H-1,2,3-triazol-2-yl)thieno[2,3-d]pyrimidine-2,4(1H,3H)-dione] |
| – | – | – | 8.00 to 8.70 | – | – | COc1ccc(F)cc1[C@H](Cn1c(=O)n([C@@H]2CCCN(C(C)C)C2=O)c(=O)c2c(C)c(-n3nccn3)sc21)OC1CCOCC1 [Compound I-77, 1-((R)-2-(5-fluoro-2-methoxyphenyl)-2-((tetrahydro-2H-pyran-4-yl)oxy)ethyl)-3-((R)-1-isopropyl-2-oxopiperidin-3-yl)-5-methyl-6-(2H-1,2,3-triazol-2-yl)thieno[2,3-d]pyrimidine-2,4(1H,3H)-dione] |
